Laboratory results as given in patent US20100273748A1, “ANTIMICROBIAL THERAPY” (priority 2006, published 2010).

How the values were obtained:
CD14 [1] = experiment: qPCR in differentiated epidermal constructs; format: cell-based, human; details: 1,25D3 100 nM
Protocol: (§1) Organotypic culture. Epiderm™ human skin-like tissue constructs were obtained from MatTek (Ashland, Mass.) and cultured according to manufacturer's instructions. Skin constructs were cultured in maintenance media (EPI-100-MM, MatTek) and stimulated with Malp-2 (0.1 μg/ml) for 24 hours in the presence of 1,25D3 (100 nM). Skin constructs were cut after stimulation and transferred to Trizol® (Invitrogen, Carlsbad, Calif.) for RNA extraction or immediately frozen in Tissue-Tek® (Sakura, Torrance, Calif.) for immunostaining.
(§2) Real-time RT-PCR (qPCR). RNA was extracted from cells, epidermal constructs or tissue using Trizol® and 1 μg RNA was reverse transcribed using iScript® (BioRad, Hercules, Calif.). Expression of cathelicidin and GAPDH was analysed by real-time RT-PCR. […] Fold induction relative to the vehicle treated control in in vitro experiments was calculated using the comparative Ct method, where ΔΔCt is ΔCt(stimulant)-ΔCt(vehicle), ΔCt is Ct(gene)-Ct(GAPDH) and Ct is the cycle at which an arbitrary detection threshold is crossed. For quantification of transcript abundance in tissue samples target gene expression was normalized to GAPDH and compared to non-treated or non-injured skin.

TLR2 [2] = experiment: qPCR in differentiated epidermal constructs; format: cell-based, human; details: 1,25D3 100 nM
Protocol: as §1, §2

[3] = Topical treatment of healthy volunteers' skin, clinical and histological inflammation; format: in vivo, human; details: single topical application of 1,25D3
Protocol: Patients and treatments. Human skin wounds were collected following informed consent by inducing 5 mm full-thickness wounds in volunteers (n=5) under aseptic conditions with local anesthesia as described. At 24 hours after incision, 4 mm punch biopsies were taken from the site of injury and immediately fixed in formalin for immunostaining or frozen in liquid N2 for subsequent RNA isolation. Intact skin from healthy volunteers served as control (n=4). To examine the effects of topical 1,25D3, healthy skin of volunteers (n=7) was treated once topically with 1,25D3 (1.0 mM) and left under occlusion for 4 days. Vehicle treated contralateral skin served as a control. After treatment, skin biopsies were obtained from both sites, fixed in formalin 10% and embedded in paraffin for immunostaining. All treatments and sample acquisitions, including skin biopsies, were approved by the committees on investigations involving human subjects.

CD14 [4] = experiment: qPCR of CD14 mRNA in cultured keratinocytes; format: cell-based, human; details: 24 hours
Protocol: (§3) Cell culture and stimuli. Human keratinocytes were grown in serum-free EpiLife® cell culture media (Cascade Biologics; Portland, Oreg.) containing 0.06 mM Ca2+ and 1× EpiLife® defined growth supplement (EDGS) at 37° C. under standard tissue culture conditions. Stock cultures were maintained for up to five passages in this media with the addition of 50 U/mL penicillin and 50 μg/mL streptomycin. HaCaT keratinocytes were cultured in DMEM (Sigma, St. Louis, Mo.) with 10% FCS. Cells at 50-70% confluence were stimulated in fresh medium after preincubation with 1,25(OH)2 vitamin D3 (1,25D3; 0.1-100 nM, 4-24 h; Sigma). Alternatively, NHEK were stimulated in the presence of 1,25D3 (0.1-100 nM). Stimuli included TLR2,6 ligands Malp-2 (0.001-0.5 μg/ml; Alexis Biochemicals, Carlsbad, Calif.), FSL-1 (1-2 μg/ml, Invivogen, San Diego, Calif.) and zymosan (50 μg/ml; Invivogen), as well as flagellin (50 ng/ml; Alexis), LPS (1 μg/ml; Sigma), lipoteichoic acid (LTA; 10 μg/ml; Sigma), 19 kDA lipopeptide (10 μg/ml, a kind gift from S. Krutzik, Division of Dermatology, UCLA), CpG DNA (10 μg/ml; Sigma), Ca2+ (1.7 mM), LPS (1 μg/ml; Sigma), TNFα (20 ng/ml; Chemicon Temecula, Calif.) and TGFβ1 (0.1-1 μg/ml; R&D Systems, Minneapolis, Minn.). A TLR2 blocking antibody (αTLR2; clone TL2.1, 5 μg/ml, eBioscience, San Diego, Calif.) was utilized to investigate the role of TLR2 signaling. Furthermore, keratinocytes were pretreated with a vitamin D receptor antagonist (VDR-antagonist ZK159222 Schering AG; 10^-7M) or the CYP inhibitor itraconazole (ITRA; 10^-7M) before stimulation with TGFβ in the presence of 25OH vitamin D3 (25D3, 10 nM, Sigma).
(§4) Real-time RT-PCR (qPCR). RNA was extracted from cells, epidermal constructs or tissue using Trizol® and 1 μg RNA was reverse transcribed using iScript® (BioRad, Hercules, Calif.). Expression of cathelicidin and GAPDH was analysed by real-time RT-PCR. Predeveloped Taqman® assay probes (ABI, Foster City, Calif.) were used for the analyses of the expression of CYP24A1 (24-hydroxylase), CYP27B1 (1α-hydroxylase), CD14, CD36, TLR1, TLR2, TLR4, TLR6 and murine CD14. All analyses were performed in triplicate from 2-5 independent experiments in an ABI Prism® 7000 Sequence Detection System. Fold induction relative to the vehicle treated control in in vitro experiments was calculated using the comparative Ct method, where ΔΔCt is ΔCt(stimulant)-ΔCt(vehicle), ΔCt is Ct(gene)-Ct(GAPDH) and Ct is the cycle at which an arbitrary detection threshold is crossed. For quantification of transcript abundance in tissue samples target gene expression was normalized to GAPDH and compared to non-treated or non-injured skin.

S. aureus DmprF = experiment: Antimicrobial activity of keratinocyte lysates (bacterial growth, OD600); format: cell-based, Staphylococcus aureus
Protocol: Panel a: NHEKs were stimulated with 1,25D3 (10^−9-10^−7 M) in the presence of the HDAC inhibitor butyrate (BUT; 2 mM) for 24 hours. mRNA abundance was determined by real-time qPCR for cathelicidin and glyceraldehyde-3-phosphate dehydrogenase and normalized to vehicle-treated controls. […] Data shown are means (7SD) of the results from a single stimulation experiment performed in triplicates and are representative of at least three independent experiments (**P<0.01; ***P<0.001; two-way analysis of variance). Panel b: The HDAC inhibitor TSA (200 ng ml^−1) induces cathelicidin in the presence of 1,25D3 (10^−8M). Expression of cathelicidin is dependent on a functional VDR, as pretreatment with the VDR antagonist ZK159222 (10^−7 M) inhibits induction of cathelicidin with BUT (2 mM) in the presence of 1,25D3 (10^−8 M) after 24 hours. Expression of cathelicidin was determined by qPCR as described in Panel a. (*P<0.05; Student's t-test). Panel c: Increased transcript correlates with enhanced cathelicidin protein expression after HDAC inhibitor and 1,25D3 stimulation. NHEKs grown on chamber slides were stimulated with the vehicle, 1,25D3 (10^−8M), BUT (2 mM), or the combination for 24 hours. Cells were stained with a polyclonal anti-LL-37 antibody (followed by an FITC-coupled secondary antibody) and nuclei detected with 4,6-diamidino-2-phenylindole (Bar=30 μM). […] NHEKs were stimulated with 1,25D3 (10^−8M) in combination with the HDAC inhibitor BUT (2 mM) for 24 hours, cells harvested and cell lysates co-incubated with S. aureus DmprF, and bacterial growth monitored over time to determine antimicrobial activity. Media not containing cell lysates or containing cell lysates from unstimulated cells were used as controls.

TLR2 [5] = experiment: qPCR of TLR2 mRNA in cultured keratinocytes; format: cell-based, human; details: 1,25D3 100 nM, keratinocyte monolayers, 24 hours
Protocol: as §3, §4

C=C1/C(=C\C=C2/CCC[C@]3(C)[C@@H]([C@H](C)CCCC(C)(C)O)CC[C@@H]23)C[C@@H](O)C[C@@H]1O [1,25D3, 1,25(OH)2 vitamin D3]
CD14 transcript abundance (CD14 [1]): show an increase
TLR2 transcript abundance (TLR2 [2]): show an increase
clinical or histological evidence of inflammation [3]: did not induce clinical or histological evidence of inflammation
CD14 mRNA expression (CD14 [4]; 1,25D3 100 nM, keratinocyte monolayers): increases expression
CD14 transcript abundance (CD14 [4]; 1,25D3 10^−8M): strongly upregulated
suppression of S. aureus growth by protein extracts of treated cells (S. aureus DmprF; cells treated with 1,25D3 (10^−8M) and butyrate (2 mM), 24 hours): maximal ability to suppress the growth
antimicrobial activity of the agents themselves (S. aureus DmprF; without cell lysate): did not show antimicrobial activity
TLR2 mRNA expression (TLR2 [5]): increases expression
